Reference: ChEMBL document CHEMBL1134723, “Synthesis and evaluation of the sunflower derived trypsin inhibitor as a potent inhibitor of the type II transmembrane serine protease, matriptase” (Bioorg Med Chem Lett, 2001)

Target: Prothrombin (Bos taurus, UniProt P00735)
Assay: Compound was tested for inhibition of bovine Thrombin

CC[C@H](C)[C@@H]1NC(=O)[C@@H]2CCCN2C(=O)[C@@H]2CCCN2C(=O)[C@H]([C@@H](C)CC)NC(=O)[C@H](CO)NC(=O)[C@H](CCCCN)NC(=O)[C@H]([C@@H](C)O)NC(=O)[C@@H]2CSSC[C@H](NC1=O)C(=O)N[C@@H](Cc1ccccc1)C(=O)N1CCC[C@@H]1C(=O)N[C@@H](CC(=O)O)C(=O)NCC(=O)N[C@@H](CCCN=C(N)N)C(=O)N2
Ki: 5.05 µM
